In brackets after ≈: the same amount, converted by molar mass. Like-named read-outs stand apart in the source and are kept apart here.
What was measured:
[1] = system: Staphylococcus aureus X400; assay: MIC, standard agar-dilution assay; type: cell-based; conditions: agar-dilution; Staphylococcus aureus X400, Methicillin-resistant strain; read-out: MIC
Experimental: (§1) The MIC's in Table II were determined by standard agar-dilution assays. The MIC's in Table III were obtained using a conventional broth-dilution microtiter test.

[2] = system: Haemophilus influenzae 76; assay: MIC, standard agar-dilution assay; type: cell-based; conditions: Haemophilus influenzae, 76
Experimental: as §1

[3] = system: Staphylococcus epidermidis EPI2; assay: MIC, standard agar-dilution assay; type: cell-based
Experimental: as §1

[4] = system: Haemophilus influenzae C.L.; assay: MIC, standard agar-dilution assay; type: cell-based; conditions: Haemophilus influenzae
Experimental: as §1

[5] = system: Pasteurella multocida 60A; assay: MIC, conventional broth-dilution microtiter test; type: cell-based
Experimental: (§2) Certain of the derivatives are active against some gram-negative bacteria, such as Pasteurella species. The MIC's in Table II were determined by standard agar-dilution assays. The MIC's in Table III were obtained using a conventional broth-dilution microtiter test.

[6] = system: Staphylococcus aureus; assay: MIC, conventional broth-dilution microtiter test; type: cell-based; conditions: broth-dilution microtiter, read-out: MIC
Experimental: as §2

[7] = system: Pasteurella multocida 22A; assay: MIC, conventional broth-dilution microtiter test; type: cell-based; conditions: broth-dilution microtiter; Pasteurella multocida 22A; read-out: MIC
Experimental: as §2

[8] = system: Pasteurella hemolytica 22C; assay: MIC, conventional broth-dilution microtiter test; type: cell-based; conditions: broth-dilution microtiter; Pasteurella hemolytica 22C; read-out: MIC
Experimental: as §2

[9] = system: Mycoplasma gallisepticum; assay: MIC, conventional broth-dilution microtiter test; type: cell-based; conditions: Mycoplasmoides gallisepticum; broth-dilution microtiter; Mycoplasma gallisepticum; read-out: MIC
Experimental: as §2

[10] = system: Pasteurella hemolytica 23C; assay: MIC, conventional broth-dilution microtiter test; type: cell-based; conditions: broth-dilution microtiter; Pasteurella hemolytica 23C; read-out: MIC
Experimental: as §2

[11] = system: Streptococcus sp. 80; assay: MIC, conventional broth-dilution microtiter test; type: cell-based; conditions: broth-dilution microtiter; Streptococcus sp. 80; read-out: MIC
Experimental: as §2

[12] = system: Mycoplasma synoviae; assay: MIC, conventional broth-dilution microtiter test; type: cell-based; conditions: Mycoplasmopsis synoviae
Experimental: as §2

[13] = system: Pasteurella multocida 40G; assay: MIC, conventional broth-dilution microtiter test; type: cell-based
Experimental: as §2

[14] = system: Mycoplasma hyorhinis; assay: MIC, conventional broth-dilution microtiter test; type: cell-based; conditions: broth-dilution microtiter; Mycoplasma hyorhinis; read-out: MIC
Experimental: as §2

[15] = system: Pasteurella multocida 17E; assay: MIC, conventional broth-dilution microtiter test; type: cell-based; conditions: broth-dilution microtiter; Pasteurella multocida 17E, Bovine isolate; read-out: MIC
Experimental: as §2

[16] = system: Pasteurella hemolytica 41D; assay: MIC, conventional broth-dilution microtiter test; type: cell-based; conditions: broth-dilution microtiter; Pasteurella hemolytica 41D; read-out: MIC
Experimental: as §2

[17] = system: Mycoplasma gallisepticum 34159; assay: MIC, conventional broth-dilution microtiter test; type: cell-based; conditions: Mycoplasmoides gallisepticum; broth-dilution microtiter; Mycoplasma gallisepticum 34159, Resistant strain; read-out: MIC
Experimental: as §2

[18] = system: Pasteurella multocida 68C; assay: MIC, conventional broth-dilution microtiter test; type: cell-based
Experimental: as §2

[19] = system: Streptococcus Group D X66; assay: MIC, standard agar-dilution assay; type: cell-based
Experimental: as §2

[20] = system: Klebsiella pneumoniae X26; assay: MIC, standard agar-dilution assay; type: cell-based; conditions: Klebsiella pneumoniae, X26
Experimental: as §2

[21] = system: Escherichia coli EC14; assay: MIC, standard agar-dilution assay; type: cell-based; conditions: agar-dilution; Escherichia coli EC14; read-out: MIC
Experimental: as §2

[22] = system: Staphylococcus aureus V41; assay: MIC, standard agar-dilution assay; type: cell-based
Experimental: as §2

[23] = system: Staphylococcus aureus X1.1; assay: MIC, standard agar-dilution assay; type: cell-based; conditions: agar-dilution; Staphylococcus aureus X1.1; read-out: MIC
Experimental: as §2

[24] = system: Streptococcus pyogenes 9960; assay: MIC, standard agar-dilution assay; type: cell-based
Experimental: as §2

[25] = system: Escherichia coli TEM; assay: MIC, standard agar-dilution assay; type: cell-based; conditions: agar-dilution; Escherichia coli TEM; read-out: MIC
Experimental: as §2

[26] = system: Streptococcus pyogenes C203; assay: MIC, standard agar-dilution assay; type: cell-based
Experimental: as §2

[27] = system: Streptococcus pneumoniae Park I; assay: MIC, standard agar-dilution assay; type: cell-based; conditions: Streptococcus pneumoniae
Experimental: as §2

[28] = system: Klebsiella pneumoniae KAE; assay: MIC, standard agar-dilution assay; type: cell-based; conditions: agar-dilution; Klebsiella pneumoniae KAE; read-out: MIC
Experimental: as §2

[29] = system: Staphylococcus aureus S13E; assay: microbe, parasite or virus in culture; type: cell-based
Experimental: as §1

[30] = system: Staphylococcus epidermidis EPI1; assay: microbe, parasite or virus in culture; type: cell-based; conditions: agar-dilution; Staphylococcus epidermidis EPI1; read-out: MIC
Experimental: as §1

[31] = system: Streptococcus pyogenes C203; assay: Protection of mice experimentally infected with S. pyogenes C203; type: in vivo;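 further: two doses given 1 and 4 hours after infection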
Experimental: Some of the derivatives of this invention have shown in vivo antimicrobial activity against experimentally-induced infections in laboratory animals. When two doses of test compound were administered to mice experimentally infected with S. pyogenes C203, the activity observed was measured as an ED50 value [effective dose in mg/kg to protect 50% of the test animals: see Warren Wick, et al., J. Bacteriol. 81, 233-235 (1961)].

[32] = system: Mycoplasma gallisepticum 41313; assay: MIC, conventional broth-dilution microtiter test; type: cell-based; conditions: Mycoplasmoides gallisepticum; broth-dilution microtiter; Mycoplasma gallisepticum 41313, Resistant strain; read-out: MIC
Experimental: as §2

SMILES | MIC [1] [µg/mL] | MIC [4] [µg/mL] | MIC [6] [µg/mL] | MIC [7] [µg/mL] | MIC [8] [µg/mL] | MIC [9] [µg/mL] | MIC [10] [µg/mL] | MIC [11] [µg/mL] | MIC [14] [µg/mL] | MIC [15] [µg/mL] | MIC [16] [µg/mL] | MIC [17] [µg/mL] | MIC [20] [µg/mL] | MIC [21] [µg/mL] | MIC [23] [µg/mL] | MIC [25] [µg/mL] | MIC [27] [µg/mL] | MIC [28] [µg/mL] | MIC [29] [µg/mL] | MIC [30] [µg/mL] | also measured
CCC1OC(=O)CC(O)C(C)C(OC2OC(C)C(O)C(N(C)C)C2O)C(CCNC)CC(C)C(=O)C=CC(C)=CC1CO (centres unmarked) [Compound 3, 20-N-Methylamino-20-deoxy-20-dihydro-OMT] | 128 (≈ 209 µM) | 128 (≈ 209 µM) | 50 (≈ 81.6 µM) | 50 (≈ 81.6 µM) | 50 (≈ 81.6 µM) | 50 (≈ 81.6 µM) | 50 (≈ 81.6 µM) | 50 (≈ 81.6 µM) | > 50 | 50 (≈ 81.6 µM) | 50 (≈ 81.6 µM) | > 50 | 64 (≈ 104 µM) | > 128 | 32 (≈ 52.2 µM) | 128 (≈ 209 µM) | 16 (≈ 26.1 µM) | > 128 | 64 (≈ 104 µM) | 32 (≈ 52.2 µM) | MIC [2]: 128 µg/mL (≈ 209 µM); MIC ([3]; Staphylococcus epidermidis, EPI2): 64 µg/mL (≈ 104 µM); MIC ([5]; broth-dilution microtiter, Pasteurella multocida 60A, Avian isolate, read-out: MIC): 50 µg/mL (≈ 81.6 µM); MIC ([12]; broth-dilution microtiter, Mycoplasma synoviae, read-out: MIC): 25 µg/mL (≈ 40.8 µM); MIC ([13]; broth-dilution microtiter, Pasteurella multocida 40G, read-out: MIC): 50 µg/mL (≈ 81.6 µM); MIC ([18]; broth-dilution microtiter, Pasteurella multocida 68C, read-out: MIC): 25 µg/mL (≈ 40.8 µM); MIC ([19]; agar-dilution, Streptococcus Group D X66, read-out: MIC): > 128 µg/mL; MIC ([22]; Staphylococcus aureus, V41): 64 µg/mL (≈ 104 µM); MIC ([24]; agar-dilution, Streptococcus 9960, read-out: MIC): > 128 µg/mL; MIC ([26]; agar-dilution, Streptococcus pyogenes C203, read-out: MIC): 128 µg/mL (≈ 209 µM)
CCC1OC(=O)CC(O)C(C)C(OC2OC(C)C(OC3CC(C)(O)C(O)C(C)O3)C(N(C)C)C2O)C(CCNCc2ccccc2)CC(C)C(=O)C=CC(C)=CC1C (centres unmarked) [Compound 25, 20-N-Benzylamino-20-deoxy-20-dihydro-DMOT] | 4 (≈ 4.9 µM) | 64 (≈ 78.3 µM) | 12.5 (≈ 15.3 µM) | > 50 | > 50 | 1.56 (≈ 1.91 µM) | > 50 | 6.25 (≈ 7.65 µM) | > 50 | > 50 | > 50 | > 50 | 64 (≈ 78.3 µM) | > 128 | 4 (≈ 4.9 µM) | > 128 | 1 (≈ 1.22 µM) | > 128 | 8 (≈ 9.79 µM) | 4 (≈ 4.9 µM) | MIC ([3]; agar-dilution, Staphylococcus epidermidis EPI2, read-out: MIC): 4 µg/mL (≈ 4.9 µM); ED50 ([31]; C203, po, read-out: ED50 Oral): > 100 mg/kg; ED50 ([31]; C203, sc, read-out: ED50 Subcutaneous): > 25 mg/kg; MIC ([5]; Pasteurella multocida, 60A): 50 µg/mL (≈ 61.2 µM); MIC [12]: 50 µg/mL (≈ 61.2 µM); MIC ([13]; Pasteurella multocida, 40G): 50 µg/mL (≈ 61.2 µM); MIC [32]: > 50 µg/mL; MIC ([18]; Pasteurella multocida, 68C): 50 µg/mL (≈ 61.2 µM); MIC [19]: 8 µg/mL (≈ 9.79 µM); MIC ([22]; agar-dilution, Staphylococcus aureus V41, Penicillin-resistant strain, read-out: MIC): 4 µg/mL (≈ 4.9 µM); MIC [24]; 9960: 8 µg/mL (≈ 9.79 µM); MIC ([26]; Streptococcus pyogenes, C203): 2 µg/mL (≈ 2.45 µM)

Reference: patent publication US4468511A, “C-20- And C-23-Modified macrolide derivatives” (Eli Lilly and Company, priority 1983, dated 1984)
